From patent publication US10966911B2, “Melanin decomposition inhibitor” (KAO CORPORATION, priority 2016, dated 2021)

How the values were obtained:
human skin tissue [1] = test: Effect of proguanil on skin color of cultured human skin tissue; type: cell-based; settings: proguanil 150, 180, 210, 240, 270 or 300 μM; Day 5; versus DMSO; FIG. 12
Method: A normal human skin tissue, which was obtained at the time of surgical operation, was provided by a medical college (department of plastic surgery). The human skin tissue, from which subcutaneous fat was previously trimmed, was cut into small pieces having a size of about 1 cm×1 cm by knife. The small pieces were cultured by using a 6-well plate at 37° C. under a 5 vol % CO2 atmospheric conditions. In the culture, Advanced DMEM medium containing a 10% (v/v) Fetal Bovine Serum (FBS) (Thermo Fisher Scientific, respectively) was used. A human skin tissue was allowed to stand still in a 6-well plate. Proguanil was added in the medium at a final concentration of 150, 180, 210, 240, 270 or 300 μM and then tissue culture was performed. As a control, DMSO was added in the same amount. Medium replacement was carried out every 2 to 3 days. Day 5 after initiation of the culture, the appearance of the skin tissue was observed and photographed.

LC3-II = test: Autophagy activity of epidermal keratinocytes (LC3-II accumulation with chloroquine diphosphate, Western blotting); type: cell-based, human; settings: proguanil 0.3, 1, 3, 10 or 30 μM in presence of 10 μM chloroquine diphosphate, FIG. 18
[2] = test system: keratinocytes and melanocytes; test: Cellular respiratory chain (growth) activity in keratinocyte-melanocyte co-culture system; type: cell-based, human; settings: concentration range of 30 μM or less, 4 days, FIGS. 16C, 16D
[3] = test system: dopa oxidase activity of melanocytes; test: Dopa oxidase activity of melanocytes in keratinocyte-melanocyte co-culture system; type: cell-based, human; settings: melanocytes (lightly and darkly), proguanil 0.1-1000 μM, 4 days, versus DMSO, FIGS. 16A, 16B
Method: Melanocytes (lightly and darkly) were seeded in 96-well plates at a cell density of 2×10^4 cells/well (100 μL/well). […] Two days later, proguanil was added at a final concentration of 0.1, 0.3, 1, 3, 10, 30, 100, 300 or 1000 μM and culture was performed at 37° C. in 5 vol % CO2 atmospheric conditions for 4 days. As a control, the same amount of DMSO was added. After completion of culture, the whole medium was replaced (100 μL/well), a reagent, alamarBlue (Bio-Rad AbD Serotec Limited) was added so as to obtain a ratio of 10 μL/well. Incubation was carried out at 37° C. in 5 vol % CO2 atmospheric conditions for one hour. Thereafter, fluorescence intensity of the medium was measured (Ex544 nm/Em590 nm) to evaluate cellular respiratory chain (growth) activity. […] The cells were lysed at 4° C. over 2 hours and dopa oxidase activity was measured. The activity measurement was performed by the following method based on the […] method (Winder A. et al., 1991, Eur. J. Biochem. 198: 317-326): to individual wells containing a cell lysate, the Assay Buffer (80 μL) as mentioned above, an aqueous 20.7 mM MBTH (3-methyl-2-benzothiazolinone hydrazone) solution (60 μL) and an aqueous 5 mM L-DOPA (L-dihydroxyphenylalanine) (40 μL) solution serving as a substrate were added, a reaction was performed at 37° C. for 30 minutes and the absorbance at a wavelength of 505 nm was measured. […]

human skin tissue [4] = test: Fontana-Masson staining of skin tissue cultured with proguanil; type: cell-based; settings: proguanil 180 μM; 5 days; versus DMSO control; FIG. 13 upper stage
Method: The human skin tissue, from which subcutaneous fat was previously trimmed, was cut into small pieces having a size of about 1 cm×1 cm by knife. The small pieces were cultured by using a 6-well plate at 37° C. under a 5 vol % CO2 atmospheric conditions. In the culture, Advanced DMEM medium containing a 10% (v/v) Fetal Bovine Serum (FBS) (Thermo Fisher Scientific, respectively) was used. […] More specifically, the skin tissue was embedded in paraffin and the resultant paraffine block was sliced to prepare paraffin sections of 5 μm in thickness. A Fontana ammonia silver solution (manufactured by MUTO PURE CHEMICALS Co., Ltd.) was allowed to react at room temperature for two hours to visually distinguish melanin granules. Thereafter, nuclear staining was performed using Kernechtrot solution (manufactured by MUTO PURE CHEMICALS Co., Ltd.). […] At the same time, HE staining was carried out.

[5] = test system: melanocytes (HEMn-LP, HEMn-DP); test: Cellular respiratory chain (growth) activity, alamarBlue, melanocyte single culture system; type: cell-based, human; settings: melanocytes (lightly and darkly); concentration range of 30 μM or less; 4 days; FIGS. 14C, 14D
Method: Melanocytes (lightly and darkly) were seeded in 96-well plates at a cell density of 2×10^4 cells/well (100 μL/well). […] As a control, the same amount of DMSO was added. After completion of culture, the whole medium was replaced (100 μL/well), a reagent, alamarBlue (Bio-Rad AbD Serotec Limited) was added so as to obtain a ratio of 10 μL/well. Incubation was carried out at 37° C. in 5 vol % CO2 atmospheric conditions for one hour. Thereafter, fluorescence intensity of the medium was measured (Ex544 nm/Em590 nm) to evaluate cellular respiratory chain (growth) activity.

[6] = test system: dopa oxidase activity of melanocytes; test: Dopa oxidase activity of melanocytes in melanocyte single culture system; type: cell-based, human; settings: melanocytes (lightly and darkly); proguanil 0.1-1000 μM; 4 days; versus DMSO; FIGS. 14A, 14B
Method: Normal human neonatal foreskin-derived epidermal melanocytes (Human Epidermal Melanocytes, neonatal, lightly pigmented donor (HEMn-LP) and Human Epidermal Melanocytes, neonatal, darkly pigmented donor (HEMn-DP); melanocytes (lightly) and melanocytes (darkly)), a growth medium for epidermal melanocytes (Medium254) and a growth additive (HMGS) for the medium were purchased from Thermo Fisher Scientific. Melanocytes were cultured at 37° C. in 5 vol % CO2 atmospheric conditions.
Melanocytes (lightly and darkly) were seeded in 96-well plates at a cell density of 2×10^4 cells/well (100 μL/well). […] Thereafter, fluorescence intensity of the medium was measured (Ex544 nm/Em590 nm) to evaluate cellular respiratory chain (growth) activity. […] The cells were lysed at 4° C. over 2 hours and dopa oxidase activity was measured. The activity measurement was performed by the following method based on the […] method (Winder A. et al., 1991, Eur. J. Biochem. 198: 317-326): to individual wells containing a cell lysate, the Assay Buffer (80 μL) as mentioned above, an aqueous 20.7 mM MBTH (3-methyl-2-benzothiazolinone hydrazone) solution (60 μL) and an aqueous 5 mM L-DOPA (L-dihydroxyphenylalanine) (40 μL) solution serving as a substrate were added, a reaction was performed at 37° C. for 30 minutes and the absorbance at a wavelength of 505 nm was measured.

dopa oxidase activity [6]: did not accelerate dopa oxidase activity
SMILES: [H]/N=C(\N/C(=N/[H])Nc1ccc(Cl)cc1)NC(C)C [proguanil, 1-(p-chlorophenyl)-5-isopropyl biguanide]
darkening of the skin color (human skin tissue [1]): induces darkening of the skin color in a dose-dependent manner
accumulation of LC3-II (LC3-II): the accumulation was reduced by proguanil in a concentration-dependent manner
cell toxicity (cellular respiratory chain activity) [2]: cell toxicity was not observed
dopa oxidase activity [3]: does not accelerate dopa oxidase activity
deposition of melanin in the epidermis (human skin tissue [4]): melanin is accumulated in a wider range of the epidermis
cell toxicity (cellular respiratory chain activity) [5]: cell toxicity was not observed
